One data set concerns the target FGR (Homo sapiens, UniProt P09769). Nature of the data set: NanoBRET CELLinib128. Conditions: read-out: Tracer bound. Background: Bioluminescence resonance energy transfer reports proximity on the nanometre scale.
The target in a further data set is TEC (Homo sapiens, UniProt P42680). Put plainly: NanoBRET CELLinib128. Conditions: read-out: Tracer bound.
The target in a further data set is RON (Homo sapiens, UniProt Q04912). Put plainly: NanoBRET CELLinib128. Conditions: read-out: Tracer bound.
In a further data set the target is T1, CAMK1D (Homo sapiens, UniProt Q8IU85).
T1 construct: Full-length kinase ORF (Promega, Madison, WI, USA) cloned in frame with a NanoLuc-vector was transfected into HEK293T cells; host or cells: HEK293T
Nature of the data set: NanoBRET CELLinib128. Conditions: 100% no effect, 0% complete tracer displacement, read-out: Tracer bound. Format: binding.

The target of the next data set is EPHA1 (Homo sapiens, UniProt P21709). Put plainly: NanoBRET CELLinib128. Conditions: read-out: Tracer bound.
A further data set can be described thus: Nephelometric solubility. Format: physicochemical. Conditions: aqueous buffer, kinetic from dmso stock; PBS buffer, nephelometry. As for the experimental part: In addition to the degradation and determination of the effects on AML cancer cells, we also determined some physicochemical parameters to assess whether the compounds are suitable for further in vivo studies. Nephelometric measurements were performed to determine the water solubility of some compounds. […] The nephelometric technique has been previously described as a high-throughput method for the solubility determination of compounds in the solvent of interest. This technique measures the intensity of scattered light when visible light passes through a suspension of the tested compound. Relative turbidity is an indication of the insolubility of compounds.
First, equidistant and logarithmic pre-dilutions were prepared in a 96-well plate with round bottoms, using 25 mM stock solutions of compounds MA68 and MA191 in DMSO. Then, 5 μL of each pre-dilution was added to 245 μL of PBS buffer in a 96-well plate with straight bottoms. Quadruplets were prepared for the blank (DMSO + PBS), and final concentrations (one plate per compound) were tested. The final concentrations measured started from 500 μM to 0.78125 μM. A NEPHELOstarplus (BMG LABTECH GmbH, Ortenberg, Germany) was used to measure the solubility, and omega-data analysis software (version 3.42 R5) was used to analyze the results.

A further data set has as its target CSF1R (Homo sapiens, UniProt P07333). Put plainly: NanoBRET CELLinib128. Conditions: read-out: Tracer bound.
The target in another data set is IRAK1 (Homo sapiens, UniProt P51617). Nature of the data set: NanoBRET CELLinib128. Conditions: read-out: Tracer bound.
Another data set has as its target T2, EPHB2 (Homo sapiens, UniProt P29323).
T2 construct: Full-length kinase ORF (Promega, Madison, WI, USA) cloned in frame with a NanoLuc-vector was transfected into HEK293T cells; host or cells: HEK293T
Nature of the data set: NanoBRET CELLinib128. Format: binding. Conditions: 1 µM; 100% no effect, 0% complete tracer displacement.

A further data set concerns the target GSK3A (Homo sapiens, UniProt P49840). Nature of the data set: NanoBRET CELLinib128. Conditions: read-out: Tracer bound.
For a further data set, the target named is EPHB1 (Homo sapiens, UniProt P54762). Nature of the data set: NanoBRET CELLinib128. Conditions: read-out: Tracer bound.
The target in a further data set is CDK1-CCNB1 (Homo sapiens, UniProt P06493). Nature of the data set: NanoBRET CELLinib128. Conditions: read-out: Tracer bound.
The target in a further data set is STK26 (Homo sapiens, UniProt Q9P289). Nature of the data set: NanoBRET CELLinib128. Conditions: read-out: Tracer bound.
STK26, sequence (Q9P289 whole entry): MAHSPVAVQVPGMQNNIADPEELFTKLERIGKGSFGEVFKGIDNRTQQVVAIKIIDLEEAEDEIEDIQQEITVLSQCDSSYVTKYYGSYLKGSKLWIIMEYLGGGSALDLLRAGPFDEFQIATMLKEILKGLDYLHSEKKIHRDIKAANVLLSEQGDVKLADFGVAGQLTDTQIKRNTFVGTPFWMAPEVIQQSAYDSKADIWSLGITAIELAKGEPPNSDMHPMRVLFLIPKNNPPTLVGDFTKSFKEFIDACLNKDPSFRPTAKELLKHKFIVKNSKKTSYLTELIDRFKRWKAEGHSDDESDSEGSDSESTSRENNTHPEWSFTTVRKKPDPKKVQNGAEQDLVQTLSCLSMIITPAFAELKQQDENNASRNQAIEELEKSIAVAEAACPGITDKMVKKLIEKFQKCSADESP
The next data set addresses SRC (Homo sapiens, UniProt P12931). Put plainly: NanoBRET CELLinib128. Conditions: read-out: Tracer bound.
Another data set concerns the target YES1 (Homo sapiens, UniProt P07947). Put plainly: NanoBRET CELLinib128. Conditions: read-out: Tracer bound.
For the next data set, the target named is T3, EPHA5 (Homo sapiens, UniProt P54756).
T3 construct: Full-length kinase ORF (Promega, Madison, WI, USA) cloned in frame with a NanoLuc-vector was transfected into HEK293T cells; host or cells: HEK293T
Put plainly: NanoBRET CELLinib128. Format: binding. Conditions: 1 µM; 100% no effect, 0% complete tracer displacement.

The target of a further data set is LTK (Homo sapiens, UniProt P29376). Nature of the data set: NanoBRET CELLinib128. Conditions: read-out: Tracer bound.
Data set [1] relates to 128 representative protein kinases. Put plainly: NanoBRET CELLinib128 kinase selectivity panel, summary. Conditions: 1 μM.
The target in the next data set is IGF1R (Homo sapiens, UniProt P08069). Nature of the data set: NanoBRET CELLinib128. Conditions: read-out: Tracer bound.
IGF1R, sequence (P08069 31-1367): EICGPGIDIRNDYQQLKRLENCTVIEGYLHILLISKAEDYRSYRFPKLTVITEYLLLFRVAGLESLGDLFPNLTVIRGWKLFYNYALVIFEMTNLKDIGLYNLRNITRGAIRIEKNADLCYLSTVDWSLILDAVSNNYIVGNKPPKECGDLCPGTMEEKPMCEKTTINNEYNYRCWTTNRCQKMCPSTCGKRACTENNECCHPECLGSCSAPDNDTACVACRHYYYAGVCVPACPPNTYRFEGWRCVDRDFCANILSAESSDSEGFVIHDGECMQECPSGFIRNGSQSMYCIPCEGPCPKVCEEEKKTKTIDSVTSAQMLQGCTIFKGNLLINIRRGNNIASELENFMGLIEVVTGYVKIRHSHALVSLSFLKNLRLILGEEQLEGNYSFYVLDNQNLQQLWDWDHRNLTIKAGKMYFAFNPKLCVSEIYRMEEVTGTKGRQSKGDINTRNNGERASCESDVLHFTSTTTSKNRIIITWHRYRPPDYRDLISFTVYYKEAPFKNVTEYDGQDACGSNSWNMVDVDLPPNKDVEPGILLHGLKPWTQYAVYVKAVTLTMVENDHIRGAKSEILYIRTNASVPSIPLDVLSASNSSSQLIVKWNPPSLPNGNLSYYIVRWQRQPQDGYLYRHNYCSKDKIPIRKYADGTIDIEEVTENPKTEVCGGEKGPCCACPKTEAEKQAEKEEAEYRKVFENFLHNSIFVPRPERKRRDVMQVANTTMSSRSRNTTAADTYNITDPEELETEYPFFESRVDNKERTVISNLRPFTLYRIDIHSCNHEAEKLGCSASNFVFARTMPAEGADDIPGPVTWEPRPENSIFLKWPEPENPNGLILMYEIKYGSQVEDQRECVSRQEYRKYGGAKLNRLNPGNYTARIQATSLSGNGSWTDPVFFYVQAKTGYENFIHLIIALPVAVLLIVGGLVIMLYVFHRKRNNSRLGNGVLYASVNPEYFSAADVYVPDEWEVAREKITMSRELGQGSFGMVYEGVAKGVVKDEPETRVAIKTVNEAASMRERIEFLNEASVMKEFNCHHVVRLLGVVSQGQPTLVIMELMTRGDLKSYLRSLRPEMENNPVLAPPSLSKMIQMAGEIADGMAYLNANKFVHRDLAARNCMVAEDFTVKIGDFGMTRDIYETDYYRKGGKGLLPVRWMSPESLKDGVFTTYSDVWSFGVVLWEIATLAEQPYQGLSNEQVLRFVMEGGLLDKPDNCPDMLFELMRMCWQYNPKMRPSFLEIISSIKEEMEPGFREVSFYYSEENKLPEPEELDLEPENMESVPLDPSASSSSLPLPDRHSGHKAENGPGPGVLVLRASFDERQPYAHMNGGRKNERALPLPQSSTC
Another data set concerns the target STK32B (Homo sapiens, UniProt Q9NY57). Put plainly: NanoBRET CELLinib128. Conditions: read-out: Tracer bound.
The target of a further data set is T4, STK17B (Homo sapiens, UniProt O94768).
T4 construct: Full-length kinase ORF (Promega, Madison, WI, USA) cloned in frame with a NanoLuc-vector was transfected into HEK293T cells; host or cells: HEK293T
T4 sequence (O94768 whole entry): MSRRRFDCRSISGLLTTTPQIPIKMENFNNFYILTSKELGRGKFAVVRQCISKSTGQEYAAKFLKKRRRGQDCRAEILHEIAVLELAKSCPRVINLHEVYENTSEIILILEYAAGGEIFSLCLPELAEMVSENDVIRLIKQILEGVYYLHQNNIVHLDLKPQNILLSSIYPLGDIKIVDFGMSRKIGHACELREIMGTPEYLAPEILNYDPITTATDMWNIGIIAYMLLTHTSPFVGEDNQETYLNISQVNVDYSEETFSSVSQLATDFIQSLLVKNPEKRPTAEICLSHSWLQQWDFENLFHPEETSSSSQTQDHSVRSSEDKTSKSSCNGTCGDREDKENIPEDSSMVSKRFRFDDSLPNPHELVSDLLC
Nature of the data set: NanoBRET CELLinib128. It counts as binding. Conditions: 100% no effect, 0% complete tracer displacement, read-out: Tracer bound.

In another data set the target is T5, EPHB3 (Homo sapiens, UniProt P54753).
T5 construct: Full-length kinase ORF (Promega, Madison, WI, USA) cloned in frame with a NanoLuc-vector was transfected into HEK293T cells; host or cells: HEK293T
Put plainly: NanoBRET CELLinib128. Format: binding. Conditions: 100% no effect, 0% complete tracer displacement, read-out: Tracer bound.

Another data set addresses T6, ABL1 (Homo sapiens, UniProt P00519).
T6 construct: Full-length kinase ORF (Promega, Madison, WI, USA) cloned in frame with a NanoLuc-vector was transfected into HEK293T cells; host or cells: HEK293T
Put plainly: NanoBRET CELLinib128. Format: binding. Conditions: 100% no effect, 0% complete tracer displacement, read-out: Tracer bound.

The subject of another data set is MV4-11 cells. Put plainly: Apoptosis by flow cytometry (annexin-V/propidium iodine). Format: cell-based, human. Conditions: 24 h. The method, then: To further assess the biological relevance of these findings, we treated MV4-11 cells with the new PROTACs, included MA49 as control, and analyzed them for early (annexin-V positive) and late apoptosis (annexin-V and propidium iodine positive) by flow cytometry. Cells in late apoptosis are more severely damaged than cells in early apoptosis. […] After 72 h, all degraders evoked equal levels of apoptosis (Figure 4c). We additionally tested these degraders in MOLM-13 cells which carry FLT3-ITD and FLT3 from a patient with AML after initial myelodysplastic syndrome. These were hardly affected by the degraders after 24 h (Figure 4d).
Figure 4 Biological and biochemical characterization of the FLT3 PROTACs. (a) MV4-11 cells were incubated for 24 h with 50 nM of the indicated compounds. Immunoblotting was performed for the indicated proteins and their phosphorylation (p-) or cleavage (cl.; indicated by arrows); β-actin was used to ensure equal sample loading. (b) MV4-11 cells were treated with the indicated agents and analyzed for early and late apoptosis by flow cytometry. (c) Same as in (b) but treatment for 72 h. (d) MOLM-13 cells were treated with the indicated agents and analyzed for early and late apoptosis by flow cytometry. […] Immunoblots show the expression of the indicated proteins and their phosphorylation (p-); β-actin was used to ensure equal sample loading. […]

Structures are written as SMILES. Values after ≈ are worked out from the molar mass of the structure shown.

T6 sequence (P00519 whole entry): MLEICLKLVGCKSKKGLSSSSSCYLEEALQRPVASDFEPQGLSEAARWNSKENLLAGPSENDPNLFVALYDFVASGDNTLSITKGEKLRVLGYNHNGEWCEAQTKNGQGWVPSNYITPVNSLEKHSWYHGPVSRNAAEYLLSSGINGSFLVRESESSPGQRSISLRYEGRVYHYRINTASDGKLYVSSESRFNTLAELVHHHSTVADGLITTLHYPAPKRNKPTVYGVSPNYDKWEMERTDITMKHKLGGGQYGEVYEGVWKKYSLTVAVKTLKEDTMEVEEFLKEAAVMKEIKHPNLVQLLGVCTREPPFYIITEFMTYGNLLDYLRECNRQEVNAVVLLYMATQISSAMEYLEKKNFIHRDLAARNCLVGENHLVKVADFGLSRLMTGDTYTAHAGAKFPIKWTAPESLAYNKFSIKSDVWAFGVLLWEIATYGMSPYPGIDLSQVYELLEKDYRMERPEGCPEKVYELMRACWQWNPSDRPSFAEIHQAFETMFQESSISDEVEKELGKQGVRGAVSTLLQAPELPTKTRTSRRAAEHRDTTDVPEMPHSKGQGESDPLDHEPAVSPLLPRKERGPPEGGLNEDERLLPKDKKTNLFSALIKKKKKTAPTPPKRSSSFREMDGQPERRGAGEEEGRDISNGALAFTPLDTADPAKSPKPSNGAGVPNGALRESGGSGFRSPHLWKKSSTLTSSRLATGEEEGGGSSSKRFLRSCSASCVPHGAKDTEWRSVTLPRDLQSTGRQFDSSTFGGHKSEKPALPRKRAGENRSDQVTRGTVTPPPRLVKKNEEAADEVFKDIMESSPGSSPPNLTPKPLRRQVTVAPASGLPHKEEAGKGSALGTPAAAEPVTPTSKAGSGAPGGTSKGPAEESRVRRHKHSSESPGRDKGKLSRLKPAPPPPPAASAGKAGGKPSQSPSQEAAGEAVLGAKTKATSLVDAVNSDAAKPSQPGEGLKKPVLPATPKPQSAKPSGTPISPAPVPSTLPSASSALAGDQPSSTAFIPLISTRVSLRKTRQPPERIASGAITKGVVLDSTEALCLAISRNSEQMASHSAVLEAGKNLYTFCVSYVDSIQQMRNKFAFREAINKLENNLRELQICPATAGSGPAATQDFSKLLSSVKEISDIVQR
STK32B, sequence (Q9NY57 whole entry): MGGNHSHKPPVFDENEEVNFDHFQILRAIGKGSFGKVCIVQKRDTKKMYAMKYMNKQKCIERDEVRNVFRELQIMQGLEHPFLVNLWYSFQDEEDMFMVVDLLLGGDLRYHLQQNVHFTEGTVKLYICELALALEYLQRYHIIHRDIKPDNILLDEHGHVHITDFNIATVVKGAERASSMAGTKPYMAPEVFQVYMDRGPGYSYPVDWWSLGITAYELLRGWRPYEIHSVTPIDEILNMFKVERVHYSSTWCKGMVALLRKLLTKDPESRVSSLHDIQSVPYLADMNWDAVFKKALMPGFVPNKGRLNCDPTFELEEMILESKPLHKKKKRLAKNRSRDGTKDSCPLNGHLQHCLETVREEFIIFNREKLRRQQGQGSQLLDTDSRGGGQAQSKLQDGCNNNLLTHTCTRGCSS
FGR, sequence (P09769 whole entry): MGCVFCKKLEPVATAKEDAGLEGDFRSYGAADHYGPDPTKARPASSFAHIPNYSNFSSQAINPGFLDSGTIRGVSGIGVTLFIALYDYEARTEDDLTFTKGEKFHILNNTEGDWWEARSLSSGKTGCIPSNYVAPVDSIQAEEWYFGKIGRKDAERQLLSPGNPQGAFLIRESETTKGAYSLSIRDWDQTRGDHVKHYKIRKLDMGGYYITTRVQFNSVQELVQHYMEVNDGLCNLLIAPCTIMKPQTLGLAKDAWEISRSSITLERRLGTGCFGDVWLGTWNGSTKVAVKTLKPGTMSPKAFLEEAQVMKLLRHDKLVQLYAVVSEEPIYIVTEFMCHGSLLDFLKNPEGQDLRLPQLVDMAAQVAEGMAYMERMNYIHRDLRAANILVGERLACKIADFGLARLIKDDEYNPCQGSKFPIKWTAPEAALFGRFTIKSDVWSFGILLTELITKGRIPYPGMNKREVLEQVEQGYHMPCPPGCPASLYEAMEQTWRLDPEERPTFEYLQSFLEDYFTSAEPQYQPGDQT
YES1, sequence (P07947 whole entry): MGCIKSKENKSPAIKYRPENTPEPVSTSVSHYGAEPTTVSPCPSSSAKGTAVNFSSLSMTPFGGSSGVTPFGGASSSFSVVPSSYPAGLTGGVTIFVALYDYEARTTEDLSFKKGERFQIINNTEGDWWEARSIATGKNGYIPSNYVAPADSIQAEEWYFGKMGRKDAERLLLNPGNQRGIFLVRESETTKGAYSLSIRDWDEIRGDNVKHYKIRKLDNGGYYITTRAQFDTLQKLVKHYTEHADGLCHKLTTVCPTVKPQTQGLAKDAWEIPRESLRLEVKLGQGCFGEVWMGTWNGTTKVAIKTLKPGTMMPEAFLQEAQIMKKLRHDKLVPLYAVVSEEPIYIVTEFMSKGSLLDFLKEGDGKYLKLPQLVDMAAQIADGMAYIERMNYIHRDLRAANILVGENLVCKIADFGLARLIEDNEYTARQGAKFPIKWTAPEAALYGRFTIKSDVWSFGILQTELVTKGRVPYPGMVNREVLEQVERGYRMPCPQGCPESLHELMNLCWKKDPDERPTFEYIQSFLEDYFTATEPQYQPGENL

By solubility is commonly meant how much of the substance goes into solution per volume. Lower therefore signals little dissolved substance. Consider `CNC(=O)c1cc(Oc2ccc(NC(=O)Nc3cc(C(C)(C)C)on3)cc2)ccn1` [MA68, reference compound], for which the remaining activity at 1 µM worked out at 119% on FGR; 107% on TEC; 100% on RON; 102% on CAMK1D; 37.2% on EPHA1; 27.1% on CSF1R. Also, the remaining activity at 1 µM on IRAK1 worked out at 108%; on GSK3A, 95.9%; on EPHB1, 27.7%; at CDK1-CCNB1 it was 98%; on STK26, 88.5%; at SRC it was 120%. Moreover, the remaining activity at 1 µM on YES1 turned out to be 77.1%; on LTK it was 102%; at IGF1R, 111%; on STK32B, 104%; on STK17B it was 102%; at EPHB3, 44.8%. For the same compound, the remaining activity at 1 µM at ABL1 was determined as 71.8%. The amount in solution in “Nephelometric solubility” (solubility) came to 45.8 µM (≈ 18.8 µg/mL). In addition, the values for the Tracer bound at EPHB2 and on EPHA5 were 49.5% and 41.1%, respectively. Further, the “Target Count < 50 % tracer bound (kinases with >50% tracer displacement)” value in [1] (of 128 kinases) stood at 25.

Turning to `Cc1ncsc1-c1ccc([C@H](C)NC(=O)[C@@H]2C[C@@H](O)CN2C(=O)[C@@H](NC(=O)[C@H]2CC[C@H](C(=O)N3CCC(CCNC(=O)c4cc(Oc5ccc(NC(=O)Nc6cc(C(C)(C)C)on6)cc5)ccn4)CC3)CC2)C(C)(C)C)cc1` [MA190, 4-(4-(3-(5-(tert-Butyl)isoxazol-3-yl)ureido)phenoxy)-N-(2-(1-(trans-4-(((S)-1-((2S,4R)-4-hydroxy-2-(((S)-1-(4-(4-methylthiazol-5-yl)phenyl)ethyl)carbamoyl)pyrrolidin-1-yl)-3,3-dimethyl-1-oxobutan-2-yl)carbamoyl)cyclohexanecarbonyl)piperidin-4-yl)ethyl)picolinamide], in the data set on MV4-11 cells, the “induction of late apoptosis” value was “most effective in inducing late apoptosis”.

On to `Cc1ncsc1-c1ccc([C@H](C)NC(=O)[C@@H]2C[C@@H](O)CN2C(=O)[C@@H](NC(=O)[C@H]2CC[C@H](C(=O)N3CCN(CCNC(=O)c4cc(Oc5ccc(NC(=O)Nc6cc(C(C)(C)C)on6)cc5)ccn4)CC3)CC2)C(C)(C)C)cc1` [MA191, 4-(4-(3-(5-(tert-Butyl)isoxazol-3-yl)ureido)phenoxy)-N-(2-(4-(trans-4-(((S)-1-((2S,4R)-4-hydroxy-2-(((S)-1-(4-(4-methylthiazol-5-yl)phenyl)ethyl)carbamoyl)pyrrolidin-1-yl)-3,3-dimethyl-1-oxobutan-2-yl)carbamoyl)cyclohexanecarbonyl)piperazin-1-yl)ethyl)picolinamide], for which the remaining activity at 1 µM at FGR was found to be 120%; on TEC it was 113%; on RON, 98.5%; on CAMK1D, 85.4%; on EPHA1, 120%; at CSF1R, 108%. Besides, the remaining activity at 1 µM on IRAK1 stood at 102%; at GSK3A, 118%; on EPHB1 it was 85.1%; at CDK1-CCNB1 it was 81.9%; on STK26, 82.3%; at SRC, 120%. Further, the remaining activity at 1 µM on YES1 was 120%; at LTK, 101%; on IGF1R it was 107%; at STK32B, 92.5%; at STK17B it was 92.4%; at EPHB3, 120%. Also, the remaining activity at 1 µM at ABL1 was determined as 105%. The compound further yielded a solubility in “Nephelometric solubility” of 47.7 µM (≈ 51.9 µg/mL). Besides, in the data set on MV4-11 cells, the “induction of late apoptosis” value is recorded as “most effective in inducing late apoptosis”. Besides, the Tracer bound at EPHB2 and on EPHA5 was 120.0% in each case. Besides, the “kinases with no detectable binding (<10%)” value in data set [1] (share of the 128 kinases) came to 93.7%.
